Source: patent US20030049267A1, “Systemic immune response induced by mucosal administration of lipid-tailed polypeptides without adjuvant” (INSTITUT PASTEUR, priority 1999, published 2003)
*: point of attachment. Palmitoyl = CCCCCCCCCCCCCCCC(=O)*

What was measured:
Assay type in all cases: in vivo
[1] = tested on: ganglia sub-mandibulaires cells of BALB/c mice
C3H/HeJ mice = test: Isotype analysis of polypeptide-specific serum antibodies (ELISA)
[2] = tested on: spleen and inguinal lymph node cells of C3H/HeJ mice; test: Lymphocyte proliferative assay after immunization with LSA3-NRII polypeptides
Protocol: FIG. 3: Systemic cellular immune responses are electited by presentation of lipid-tailed polypeptides to the nasal and sub-lingual mucosal surfaces. Groups of five C3H/HeJ mice were administrated with LSA3-NRII lipid-tailed (black bars) or non-lipidated polypeptide (hatched bars) either a) intranasally, b) sub-lingually, or c) subcutaneously. Two weeks after two administrations, cell suspensions from individual spleens were assayed for in vitro proliferation to the recall polypeptide. Results are expressed as Δ cpm. The background cpm, in unstimulated cells were 1548 fro intranasal, 2356 for sub-lingual and 1965 for subcutaneous routs. Bars represent the mean Δ cpm ± SD in each group. The data were similar and are representative of three separate experiments.

[3] = tested on: BALB/c, C3H/HeJ, or C57BL/6 mice; test: Serum polypeptide-specific IgG ELISA after immunization with LSA3-NRII polypeptides
Source text: To investigate the ability of lipid-tailed polypeptides to induce systemic antibody responses using mucosal route, the LSA3-NRII lipid-tailed polypeptide was administrated either intranasally (I.N.) or sub-lingually (S.L.) in BALB/c, C3H/HeJ which were found previously to respond strongly to the epitopes of LSA3-NRII, or C57BL/6 mice which is poorly responsive. Negative and positive controls received respectively, the non-lipidated polypeptide administrated by IN and S.L. route, or the same lipid-tailed polypeptide injected subcutaneously (S.C.) without adjuvant.
Individual blood samples were obtained via the retro-orbital plexus by 9 to 15 days post immunization (dpi) and sera were stored at-70i C until assayed for IgG, IgA and IgM polypeptide- and parasite-specific Abs. The presence of anti-peptide antibodies in sera was determined using Enzyme-linked immunosorbent assay (ELISA) as reported previously (BenMohamed et coll., 1997). ELISA plates (Nunc, Roskilde, Denmark) were coated overnight at 4i C with 0.1 ml of LSA3-NRII or LSA1-J polypeptide solution at 3 zg/ml in PBS buffer pH 7.4 containing 3% BSA. The LSA1-J polypeptide was used as the irrelevant control of LSA3-NRII and vice versa. The plates were washed twice in PBS with 0.01% Tween-20 (PBS-T), blocked for 1 hr in PBS-T supplemented with 1% BSA prior to the addition of 0.1 ml of 1/100 dilution of mouse sera. The plates were then incubated at 37iC for one hour. After washing, the bound IgG were detected using peroxidase-conjugated goat anti-mouse IgG (Biosys, Compiegne, France) added at a 1/2000 dilution. Following incubation at 37iC for 1 hour and a final wash, 50 μl of 0.30% H2O2 containing orthophenylenediamine dihydrochloride (OPD, Sigma, St. Louis), dissolved in 0.1 M citrate buffer (pH 5.0) were added to each well at room temperature. The OD450 nm was measured using a multichannel spectrophotometer (Titertek Multiskan MCC. 340). Individual sera from all groups were diluted 1/100 and analyzed separately. Preimmune sera were used as negative controls and the results were expressed either as optical density (OD) at 450nm or as ELISA-RATIO calculated as follows: OD450 nm postimmune sera divided by OD450 nm preimmune sera. […] Isotype analysis of mouse was carried out using class specific […] Goat anti-Mouse IgA, IgM, IgGI, IgG2a, IgG2b or IgG3 HRP-Labeled (Southern Biotechnology Associates, Birmingham, USA) added at a 1/2000 dilution in PBS-T, as previously described (BenMohamed et coll., 1997).

[4] = tested on: P. falciparum sporozoites and hepatic schizonts; test: Immunofluorescent Ab assay (IFAT) of sera from mucosally immunized mice
Protocol: FIG. 2: Mucosal immunization elicits parasite-specific antibody responses. Sera were obtained from C3H/HeJ mice at 2 weeks post-immunization by either nasal or sub-lingual route and assayed fro recognition of (a) P. falciparum sporozoites and (B) hepatic schizonts in an IFI assay as described in Material and Methods. The data are representative of three independent experiments.
The reactivity of the sera against native proteins from various stages of the parasite were analyzed by IFAT using either (i) P. falciparum NF54 strain sporozoites (a gift of W. Eling), or (ii) sections from liver biopsies containing day 5 P. falciparum liver schizonts, or (iii) day 6 ½ P. falciparum liver schizonts obtained from a Chimpanzee. IFAT-labeled anti-human IgG, -A, -M (Diagnostic Pasteur France) or anti-mouse (Cappel. Wester Chester. PA) diluted {fraction (1/200 )} were employed as second Abs.

## Concanavaline A [CON A, reference compound]
[1]; in vitro positive control
  immune response (CFSE shift), positive control: maximum immune response

## Nh2-K(NεPam)GRQYIKANSKFIGITERGRILKEPVHGV-COOH [TT-pol. (HIV)]
[1]; mouse, in vivo
  shift of fluorescence (CFSE), immune response: as intense as that provided by positive CON A control

## Ac-LEESQVNDDIFNSLVKSVQQEQQHNVK(Pam)NH2 (Ac-LEESQVNDDIFNSLVKSVQQEQQHNVK(Palmitoyl)-NH2; SMILES CCCCCCCCCCCCCCCC(=O)NCCCC[C@H](NC(=O)[C@@H](NC(=O)[C@H](CC(N)=O)NC(=O)[C@H](Cc1c[nH]cn1)NC(=O)[C@H](CCC(N)=O)NC(=O)[C@H](CCC(N)=O)NC(=O)[C@H](CCC(=O)O)NC(=O)[C@H](CCC(N)=O)NC(=O)[C@H](CCC(N)=O)NC(=O)[C@@H](NC(=O)[C@H](CO)NC(=O)[C@H](CCCCN)NC(=O)[C@@H](NC(=O)[C@H](CC(C)C)NC(=O)[C@H](CO)NC(=O)[C@H](CC(N)=O)NC(=O)[C@H](Cc1ccccc1)NC(=O)[C@@H](NC(=O)[C@H](CC(=O)O)NC(=O)[C@H](CC(=O)O)NC(=O)[C@H](CC(N)=O)NC(=O)[C@@H](NC(=O)[C@H](CCC(N)=O)NC(=O)[C@H](CO)NC(=O)[C@H](CCC(=O)O)NC(=O)[C@H](CCC(=O)O)NC(=O)[C@H](CC(C)C)NC(C)=O)C(C)C)[C@@H](C)CC)C(C)C)C(C)C)C(C)C)C(N)=O) [LSA3-NRII lipid-tailed polypeptide, P. falciparum LSA-3 derived polypeptide with palmitoyl tail on side chain of C-terminal lysylamide]
C3H/HeJ mice; all groups (I.N., S.L., S.C.)
  anti-peptide IgA, IgM and IgG3: low and similar titers
C3H/HeJ mice; mucosal administration (I.N., S.L.)
  serum antibody isotype response: preferential IgG2a
C3H/HeJ mice; subcutaneous route
  serum antibody isotype response: dominant IgG1
[2]; Ag specificity control
  proliferative responses against irrelevant polypeptide (LSA1-J): lack of responses
[2]; S.L. (first value)
  proliferative response in inguinal lymph nodes, maximal delta cpm: 12525 cpm
[2]; S.L. or I.N. application, without mucosal adjuvant, recall polypeptide
  proliferative responses in spleen cells: strong proliferative responses
[2]; mucosal administration, abrogated by antibodies against CD4 but not by anti-CD8
  phenotype of lymphoproliferative responses: CD4 phenotype
[2]; printed 'in S.L'
  proliferative response in inguinal lymph nodes, maximal delta cpm: 16189 cpm
[2]; same dose, P<0.05
  proliferative responses, mucosally versus subcutaneously immunized animals: higher levels
[3]; C57BL/6 strain, mucosal or subcutaneous administration
  antibody response: No antibody response
[3]; I.N. or S.L. administration, without adjuvant, BALB/c and C3H/HeJ, serum two weeks after the second administration
  polypeptide-specific antibody responses in serum (ELISA): high titers
[3]; both mucosal routes (I.N., S.L.) compared with S.C., p<0.05
  mean titers of IgG antibodies, mucosal routes versus S.C. route: significantly higher
[3]; p<0.05 in BALB/c and p<0.01 in C3H/HeJ
  polypeptide specific antibody titers, sub-lingual versus intranasal groups: significantly higher
[4]; different steps of intra-erythrocytic maturation
  reactivity of induced Abs with infected RBC's: did not react
[4]; sera of mucosally immunized BALB/c and C3H/HeJ, sporozoite and liver stages
  reactivity of induced Abs with intact parasite by IFAT: react with the intact parasite
